This is an account of results in patent US9796719B2, “Compounds and pharmaceutical compositions thereof for the treatment of inflammatory disorders” (GALAPAGOS NV, priority 2013, dated 2017).

One may read the IC50 as the point on the concentration scale where inhibition reaches its midpoint. Higher therefore signals a need for much substance.

Experiment [1] concerns the target T1, hENPP2 (UniProtKB/SwissProt Sequence ref Q13822) (Homo sapiens (Human), UniProt Q13822). Put plainly: LPC hENPP2 assay (choline release, LPC as substrate). It counts as biochemical. Put shortly: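 Choline released from LPC by ENPP2 is quantified after stopping with stop-developer containing 0.6 U/mL choline oxidase, 0.6 U/mL peroxidase, 1.8 mM TOOS, 1.2 mM amino-antipyrine and 20 mM EGTA. Quinoneimine dye read at 555 nm after 30 min at room temperature.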

Experiment [2] concerns recruited BALF cells. The experiment is described as follows: LPS induced lung inflammation model (in-LPS test). It counts as in vivo, mouse. Conditions: versus inLPS Vehicle group. How it is done:
The aim of the assay is to assess the effect of a test compound in a mouse model of acute lung inflammation induced by intranasal instillation of LPS. The impact on the induced cells recruitment in lung is evaluated by measurement of white cells count in broncho-alveolar lavage (BAL) fluid with VetABC device (medical solution gmbh, Rothusstrasse 23, 6331 Hunenberg, Switzerland).
The animals (BALB/c J mice, 18-20 g) are obtained from Harlan Laboratories (Maison-Alfort, France). The animals are maintained on 12 hours light/dark cycle at 22° C. with ad libitum access to tap water and food. Litters are changed twice a week. For each tested compound, a group of 10 subjects is used. In addition to the test compound-treated groups, a vehicle+LPS control group (inLPS), a non-treated group (intact), and a positive control dexamethasone treated group (DEX) are used.
LPS is dissolved in saline solution in order to obtain a final 10 μg/50 μL solution for intranasal instillation, and administered at 50 μL/mouse by intranasal instillation.
The test compounds are prepared in 15 mL PEG200 (9 mL)/H2O (6 mL) to be dosed in a range of 0.3, 1, 3, 10, and 30 mg/kg, and then kept at room temperature in the dark, and are administered once (qd) or twice daily (bid) over 2 days.
Dexamethasone (10 mg/kg, bid, po) is used as a positive control.
On day 1, mice are anaesthetized by isoflurane inhalation. During breathing, LPS solution is instilled intra-nasally and mice are monitored until complete recovery from anaesthesia.
On day 2, mice are anaesthetized by intra-peritoneal injection (under a volume of 10 mL/kg) of anaesthetic solution (18 mL NaCl 0.9%+0.5 mL xylazine (5 mg/kg)+1.5 mL ketamine (75 mg/kg)).
The trachea is canulated with a catheter, and BAL is performed by 2×0.75 mL sterile PBS. The BAL fluid removed is shaked gently at room temperature before centrifugation at 1500 r.p.m. during 10 min at 4° C.
The supernatant is removed and the cell pellet is suspended in 200 μL of PBS, kept on ice and total cell count is processed with VetABC device. Finally, mice are sacrificed under anaesthesia.
For each readout, mean and sem are calculated. A difference statistically significant between intact or treated groups and inLPS Vehicle group is evaluated with Prism® software using a one-way ANOVA (for treatment groups) followed by a Student test. *: p<0.05; **: p<0.01; ***: p<0.001 versus inLPS Vehicle group.

In experiment [3] the target is T1, hENPP2. The experiment is described as follows: FS3 hENPP2 assay (fluorogenic substrate FS-3). The format is biochemical. Conditions: hENPP2, FS-3 as substrate. The method, boiled down: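 Compound dilutions (1/5 steps, top concentration as added 20 μM) were preincubated 30 min at room temperature with hENPP2 (0.4 or 0.64 μg/mL final) in pH 8.0 Tris buffer containing NaCl, KCl, MgCl2, CaCl2 and 0.1% fatty-acid-free BSA. FS-3 (0.75 μM as added) was then hydrolysed for 30 min at 30 °C, and fluorescence was read at 485/520 nm.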

The test system of experiment [4] is LPA 18:2. Put plainly: Rat whole blood (plasma) LPA assay. The format is biochemical. How it is done:
Whole blood is collected from rats or mouse by exsanguinations on sodium heparin tube, then after centrifugation at 3000 rpm for 15 min at 4° C., plasma is stored at −80° C. Compounds are diluted in DMSO in concentration dependent manner then 0.5 μL are dispensed into 96-wells plate placed in ice. Plasma is defrosted on ice then 49.5 μL of plasma are added into the well containing 0.5 μL of compound (1% DMSO final). Plates are covered with a lid in polypropylene and incubated at +37° C., 5% CO2, for 2 h under gentle shaking (except controls which are stored at −20° C.).
At the end of the incubation, controls are defrosted in ice and transferred in the incubated plates for LC-MS/MS analysis with a non GLP-validated method. For the analysis, plasma proteins from a 10 μL incubated plates are precipitated with an excess of methanol containing the internal standard, LPA 17:0. After centrifugation, the corresponding supernatant is injected on a C18 column. Analytes are eluted out of the column under isocratic conditions. An API5500 QTRAP mass spectrometer (ABSciex™) is used for the detection of LPA 18:2. No calibration curve is prepared for LPA 18:2, however relative quantities are evaluated based on the peak area.

`CCc1nc2ccc(N3CCN(CC(=O)N4CC[C@@H](O)C4)CC3)nn2c1N(C)c1nc(-c2ccc(F)cc2)cs1` [Cpd 33, (R)-2-(4-(2-ethyl-3-((4-(4-fluorophenyl)thiazol-2-yl)(methyl)amino)imidazo[1,2-b]pyridazin-6-yl)piperazin-1-yl)-1-(3-hydroxypyrrolidin-l-yl)ethanone]: the IC50 lay in the range of 100 to 500 nM in experiment [1] and 0.01 to 25 nM in experiment [3]. In experiment [2] (10 mg/kg bid po), the “Effect significance on recruited BALF cells” value (from here on “Effect significance”) is given as “** (**: p<0.01)”.
In the same order, the values of `CCc1nc2ccc(N3CCN(CC(=O)N4CC[C@H](O)C4)CC3)nn2c1N(C)c1nc(-c2ccc(F)cc2)cs1` [Compound 34, (S)-2-(4-(2-ethyl-3-((4-(4-fluorophenyl)thiazol-2-yl)(methyl)amino)imidazo[1,2-b]pyridazin-6-yl)piperazin-1-yl)-1-(3-hydroxypyrrolidin-1-yl)ethanone] are 100 to 500 nM, 0.01 to 25 nM and “* (*: p<0.05)”.
On to `CCc1nc2ccc(N3CCN(CC(=O)N(C)C)CC3)nn2c1N(C)c1nc(-c2ccc(F)cc2)cs1` [Cpd 42, 2-(4-(2-ethyl-3-((4-(4-fluorophenyl)thiazol-2-yl)(methyl)amino)imidazo[1,2-b]pyridazin-6-yl)piperazin-1-yl)-N,N-dimethylacetamide], for which the results for the IC50 in experiment [1], in experiment [4] and in experiment [3] were 100 to 500 nM, 100 to 500 nM and 0.01 to 25 nM, respectively. Besides, the “Effect significance” value in experiment [2] (3 mg/kg bid po) and in experiment [2] (30 mg/kg bid po) was “*** (***: p<0.001)” in each case.
`CCc1nc2cnc(C3CCN(CC(=O)N4CC[C@H](O)C4)CC3)cn2c1N(C)c1nc(-c2ccc(F)cc2)c(C#N)s1` [Cpd 25, (S)-2-((2-ethyl-6-(1-(2-(3-hydroxypyrrolidin-1-yl)-2-oxoethyl)piperidin-4-yl)imidazo[1,2-a]pyrazin-3-yl)(methyl)amino)-4-(4-fluorophenyl) thiazole-5-carbonitrile]: the figures for the IC50 in experiment [1], in experiment [4] and in experiment [3] were 100 to 500 nM, 0.01 to 100 nM and 0.01 to 25 nM, respectively.
Turning to `CCc1nc2cnc(N3CCN(CC(=O)N4CCOCC4)CC3)cn2c1N(C)c1nc(-c2ccc(F)cc2)c(C#N)s1` [Cpd 10, 2-((2-ethyl-6-(4-(2-morpholino-2-oxoethyl)piperazin-1-yl)imidazo[l,2-a]pyrazin-3-yl)(methyl)amino)-4-(4-fluorophenyl) thiazole-5-carbonitrile], the IC50 in experiment [1] was 100 to 500 nM; in experiment [4], greater than 1000 nM; in experiment [3] it was 0.01 to 25 nM.
As for `CCc1nc2cnc(N3CCN(CC(=O)N4CC[C@H](O)C4)CC3)cn2c1N(C)c1nc(-c2ccc(F)cc2)c(C#N)s1` [Cpd 7, (S)-2-((2-ethyl-6-(4-(2-(3-hydroxypyrrolidin-1-yl)-2-oxoethyl)piperazin-1-yl)imidazo[1,2-a]pyrazin-3-yl)(methyl)amino)-4-(4-fluorophenyl) thiazole-5-carbonitrile], the IC50 was 100 to 500 nM in experiment [1], 100 to 500 nM in experiment [4] and 0.01 to 25 nM in experiment [3].
Regarding `CCc1nc2ccc(N3CCN(CC4CNC(=O)O4)CC3)nn2c1N(C)c1nc(-c2ccc(F)cc2)cs1` (stereo not shown) [Cpd 40, 5-((4-(2-ethyl-3-((4-(4-fluorophenyl)thiazol-2-yl)(methyl)amino)imidazo[1,2-b]pyridazin-6-yl)piperazin-1-yl)methyl) oxazolidin-2-one], the IC50 lay within 100 to 500 nM in experiment [1], 100 to 500 nM in experiment [4] and 0.01 to 25 nM in experiment [3].
On to `CN(c1nc(-c2ccc(F)cc2)cs1)c1c(CCC#N)nc2ccc(C3CCN(S(C)(=O)=O)CC3)nn12` [Compound 198, 3-(3-((4-(4-fluorophenyl)thiazol-2-yl)(methyl)amino)-6-(1-(methylsulfonyl)piperidin-4-yl)imidazo[1,2-b]pyridazin-2-yl)propanenitrile], for which the IC50 in experiment [1] lay within 100 to 500 nM; in experiment [4], 0.01 to 100 nM; in experiment [3], 0.01 to 25 nM.
Consider `CCc1nc2ccc(C3CCN(CC(=O)N4CC(O)C4)CC3)nn2c1N(C)c1nc(-c2ccc(F)cc2)cs1` [Cpd 201, 2-(4-(2-ethyl-3-((4-(4-fluorophenyl)thiazol-2-yl)(methyl)amino)imidazo[1,2-b]pyridazin-6-yl)piperidin-1-yl)-1-(3-hydroxyazetidin-1-yl)ethanone], for which the values for the IC50 in experiment [1] and in experiment [3] were 100 to 500 nM and 0.01 to 25 nM, respectively. Further, the “Effect significance” value in experiment [2] (10 mg/kg bid po) is on record as “** (**: p<0.01)”.
On to `CCc1nc2ccc(N3CCN(CC(=O)N(C)C)CC3)nn2c1N(C)c1nc(-c2ccc(F)cc2)c(C#N)s1` [Compound 44, 2-(4-(3-((5-cyano-4-(4-fluorophenyl)thiazol-2-yl)(methyl)amino)-2-ethylimidazo[1,2-b]pyridazin-6-yl)piperazin-1-yl)-N,N-dimethylacetamide], for which, in experiment [1], the IC50 was in the range of 0.01 to 100 nM. Also, the “Effect significance” value in experiment [2] (3 mg/kg bid po) is on record as “** (**: p<0.01)”.
